# Data reported in US20100249234A1, “METHODS OF REDUCING VIRULENCE IN BACTERIA” (UWM RESEARCH FOUNDATION, INC., priority 2007, published 2010).
# Legend:
# Assay type in all cases: cell-based, Dickeya dadantii 3937 (Ech3937)
# [1] = tested on: Ech3937; assay: Growth of Ech3937 in MM supplemented with compound; conditions: 0.05, 0.1 and 0.2 mM in MM (FIGS. 2A, 2B)
# Excerpt: Phenolic compounds constitute an important class of organic substances produced by plants. The phenolic compound SA is a signaling molecule that plays a role in host defenses. OCA and TCA are the biosynthetic precursors of SA and are also reported to induce the expression of defense-related genes in plants. OCA, TCA, and SA were examined to elucidate their effects on the expression of T3SS genes. The expression of the T3SS gene hrpN was examined in MM and MM supplemented with OCA, TCA, and SA, at concentrations of 0.05, 0.1, and 0.2 mM, respectively. FIGS. 2A and 2B show the promoter activities of hrpN in Dickeya dadantii 3937 (Ech3937) grown in MM and MM supplemented with 0.05, 0.1, and 0.2 mM OCA, TCA, and SA at 12 h (FIG. 2A) and 24 h (FIG. 2B) post-inoculation. GFP intensity was determined on gated populations of bacterial cells by flow cytometry and analyzed with the Cell Quest software (BD Biosciences, San Jose, Calif.). The growth of Ech3937 in MM supplemented with different concentrations of OCA, TCA and SA was recorded. Compared with MM alone, the average GFP fluorescence intensity of bacterial cells of Ech3937 (phrpN) was increased approximately 4-fold when 0.05 mM of OCA and TCA were added to the medium (FIGS. 2A, 2B).
# The expression of the T3SS gene hrpA was further examined in MM and MM supplemented with PCA at concentrations of 0.001, 0.005, 0.01, 0.05 and 0.1 mM respectively. FIGS. 16A and 16B show the promoter activities of hrpA in Dickeya dadantii 3937 (Ech3937) grown in minimum medium (MM) and MM supplemented with different amount of p-coumaric acid (PCA) at 12 h (FIG. 16A) and 24 h (FIG. 16B) post-inoculation. GFP intensity was determined on gated populations of bacterial cells by flow cytometry and analyzed with the Cell Quest software (BD Biosciences, San Jose, Calif.). The growth of Ech3937 in MM supplemented with different concentrations of PCA was recorded. Compared with MM alone, the average GFP fluorescence intensity of bacterial cells of Ech3937 (phrpA) was reduced more than 4-fold when 0.05 and 0.1 mM of PCA were added to the medium (FIGS. 16A, 16B).
# [2] = tested on: hrpN promoter; assay: hrpN promoter activity, GFP reporter plasmid phrpN, flow cytometry (FACS)
# [3] = tested on: hrpL promoter; assay: hrpL promoter activity, GFP reporter plasmid phrpL, flow cytometry (FACS); conditions: MM + 0.1 mM compound
# Experimental: (§1) FACS analysis of promoter activity of dspE, hrpA, hrpL, hrpN, and hrpS was carried out as described (Peng et al., 2006). Briefly, the wild-type Ech3937 and the mutant strains carrying the promoter reporter plasmid were grown on LB broth at 28° C. overnight and transferred to appropriate media. For FACS analysis, samples were collected by centrifugation, washed with 1× phosphate buffer saline (PBS) at 13,000 rpm for 1 min, and re-suspended in 1×PBS to ca 10^6 CFU/ml prior to being run in a FACS Calibur flow cytometer (BD Biosciences, CA). Three replicates were performed for each treatment.
# (§2) Since OCA and TCA induced the expression of hrpN, the effect of these two phenolic compounds on the expression of hrpA, hrpL, and hrpS was investigated further. […] GFP intensity was determined on gated populations of bacterial cells by flow cytometry and analyzed with the Cell Quest software (BD Biosciences, San Jose, Calif.). The lines labeled “1” stand for the GFP expression control base level of the Ech3937 containing pPROBE-AT vector; lines labeled “2” stand for the promoter activity of hrpS, hrpL, hrpA and hrpN in Ech3937 in MM; lines labeled “3” stand for the promoter activity of Ech3937 in MM supplemented with 0.1 mM OCA; lines labeled “4” stand for the promoter activity of hrpL mutant WPP96 in MM; lines labeled “5” stand for the promoter activity of hrpL mutant WPP96 in MM supplemented with 0.1 mM OCA. Values are representative of at least two experiments. […] Compared with MM alone, the average GFP fluorescence intensity of bacterial cells of Ech3937 (phrpA) was doubled when 0.1 mM of OCA and TCA were added to the medium (Table 4; FIG. 3). […] The mrp, whose protein product has an ATPase conserved domain (2e-06), was used as a reference gene in this study.
# [4] = tested on: hrpA promoter; assay: hrpA promoter activity, GFP reporter plasmid phrpA, flow cytometry (FACS)
# Experimental: as §1
# To identify potential compounds that repress activation of T3SS, analogs and isomers of TCA and intermediates of salicylic acid and phenypropanoid biosynthesis pathways in plants were further screened for their effect on Ech3937 hrpA expression by flow cytometry (Table 9). A green fluorescent protein (GFP) reporter plasmid phrpA (pProbe-AT derivative with PCR fragment containing hrpA promoter region) was constructed, resulting in a transcriptional fusion of hrpA promoter with GFP gene. Bacterial cells containing phrpA plasmid were grown in MM supplemented with 0.1 mM of each compound. GFP intensity, which is a measurement of hrpA promoter activity, was measured by flow cytometry.
# [5] = tested on: pPROBE-AT vector; assay: GFP expression control base level, pPROBE-AT vector, flow cytometry (FACS); conditions: MM + 0.1 mM compound, 12 h (Table 4)
# Experimental: as §1, §2
# [6] = tested on: mrp promoter; assay: mrp (reference gene) promoter activity, GFP reporter pmrp, flow cytometry (FACS); conditions: MM + 0.1 mM compound
# Experimental: as §1, §2
# [7] = tested on: rsmB mRNA; assay: qRT-PCR relative mRNA level of rsmB; conditions: Ech3937 in supplemented MM vs MM alone (normalized to 1)
# Experimental: Bacterial strains were grown in MM. Total RNA from the bacterial cells was isolated by using the TRI reagent method (Sigma, Mo.) and treated with Turbo DNA-free DNase kits (Ambion, TX) as described (Peng et al., 2006). An iScript cDNA Synthesis Kit (Bio-Rad, CA) was used to synthesize cDNA from 0.5 μg of treated total RNA. The Real Master Mix (Eppendorf, Westbury, N.Y.) was used for qRT-PCR reaction to quantify the cDNA level of target genes in different samples. The rplU was used as the endogenous control for data analysis. qRT-PCR data were analyzed using Relative Expression Software Tool as described (Pfaffl, M. W., Horgan, G. W., and Dempfle, L. (2002) Relative expression software tool (REST) for group-wise comparison and statistical analysis of relative expression results in real-time PCR. Nucleic Acids Res 30:e36.).
# [8] = tested on: hrpS promoter; assay: hrpS promoter activity, GFP reporter plasmid phrpS, flow cytometry (FACS); conditions: MM + 0.1 mM compound
# Experimental: as §1, §2
# [9] = hrpL mutant WPP96, 12 h (Table 4)
# [10] = MM + 0.1 mM compound, 12 h (Table 4)
# [11] = hrpL mutant WPP96, MM + 0.1 mM compound, 12 h (Table 4)
smiles,measurement,setting,value
"O=C(O)c1ccccc1O [SA, salicylic acid, reference compound]",bacterial growth of Ech3937 in supplemented MM,[1],No reduction of bacterial growth
same,effect on GFP fluorescence intensity of Ech3937 (phrpN) compared with MM alone,"[2]; 0.05, 0.1 and 0.2 mM in MM, 12 h and 24 h (FIGS. 2A, 2B)",did not result in increased GFP fluorescence intensity
same,GFP Intensity of Ech3937 (phrpN),"[2]; MM + 0.2 μM compound, 12 h",53.7 ± 4.0
same,GFP Intensity of Ech3937 (phrpN),"[2]; MM + 0.2 μM compound, 24 h",105 ± 28
same,GFP Intensity of Ech3937 (phrpN),"[2]; MM + 0.5 μM compound, 12 h",49.5 ± 5.9
same,GFP Intensity of Ech3937 (phrpN),"[2]; MM + 0.5 μM compound, 24 h",99.5 ± 18
same,GFP Intensity of Ech3937 (phrpN),"[2]; MM + 5 μM compound, 12 h",49.9 ± 2.9
same,GFP Intensity of Ech3937 (phrpN),"[2]; MM + 5 μM compound, 24 h",97.7 ± 9.0
same,GFP Intensity of Ech3937 (phrpN),"[2]; MM + 10 μM compound, 12 h",52.0 ± 2.3
same,GFP Intensity of Ech3937 (phrpN),"[2]; MM + 10 μM compound, 24 h",104 ± 3.1
"O=C(O)/C=C/c1ccccc1 [TCA, t-cinnamic acid]",promoter activity of hrpL compared with MM alone,"[3]; Ech3937, 12 h",slightly higher promoter activity
same,GFP intensity (Mean Fluorescence Intensity) of Ech3937 (phrpL),[3]; 12 h (Table 4),19 ± 1
same,GFP intensity (Mean Fluorescence Intensity) of WPP96 (phrpL),[3]; [9],331 ± 27
same,bacterial growth of Ech3937 in supplemented MM,[1],No reduction of bacterial growth
same,average GFP fluorescence intensity of Ech3937 (phrpA) compared with MM alone,"[4]; 0.1 mM compound, 12 h",doubled
same,"expression of hrpA, GFP intensity (Mean Fluorescence Intensity), Ech3937 carrying phrpA","[4]; MM + 0.1 mM compound, 6 h (Table 9)",22.3 ± 2.1
same,GFP intensity (Mean Fluorescence Intensity) of Ech3937 (phrpA),[4]; [10],78 ± 0
same,"expression of hrpA, GFP intensity (Mean Fluorescence Intensity), Ech3937 carrying phrpA","[4]; MM + 0.1 mM compound, 12 h (Table 9)",133.9 ± 12.9
same,"expression of hrpA, GFP intensity (Mean Fluorescence Intensity), Ech3937 carrying phrpA","[4]; MM + 0.1 mM compound, 24 h (Table 9)",203.7 ± 16.1
same,GFP intensity (Mean Fluorescence Intensity) of WPP96 (phrpA),[4]; [11],6.2 ± 0.6
same,GFP intensity (Mean Fluorescence Intensity) of Ech3937 (pPROBE-AT),[5],1.9 ± 0
same,increase of average GFP fluorescence intensity of Ech3937 (phrpN) compared with MM alone,"[2]; 0.05 mM compound added to MM, 12 h and 24 h (FIGS. 2A, 2B)",approximately 4 fold
same,"induction of hrpN expression in Ech3937 and in hrpX (WPP67), hrpY (WPP92), hrpS (WPP90) mutants","[2]; 0.1 mM compound in MM, 12 h (FIG. 5)","induced the expression of hrpN in Ech3937, but not in hrpX, hrpY, and hrpS mutants"
same,GFP Intensity of Ech3937 (phrpN),"[2]; MM + 0.2 μM compound, 12 h",65.1 ± 6.8
same,GFP Intensity of Ech3937 (phrpN),"[2]; MM + 0.2 μM compound, 24 h",163 ± 25
same,GFP Intensity of Ech3937 (phrpN),"[2]; MM + 0.5 μM compound, 12 h",73.4 ± 4.2
same,GFP Intensity of Ech3937 (phrpN),"[2]; MM + 0.5 μM compound, 24 h",158 ± 20
same,GFP Intensity of Ech3937 (phrpN),"[2]; MM + 5 μM compound, 12 h",134 ± 5.6
same,GFP Intensity of Ech3937 (phrpN),"[2]; MM + 5 μM compound, 24 h",266 ± 14
same,GFP Intensity of Ech3937 (phrpN),"[2]; MM + 10 μM compound, 12 h",147 ± 18
same,GFP Intensity of Ech3937 (phrpN),"[2]; MM + 10 μM compound, 24 h",284 ± 12
same,GFP intensity (Mean Fluorescence Intensity) of Ech3937 (phrpN),[2]; [10],103 ± 1
same,GFP intensity (Mean Fluorescence Intensity) of WPP96 (phrpN),[2]; [11],3.3 ± 0
same,mrp expression in Ech3937 (pmrp) compared with MM,[6]; 12 h,slightly higher mrp expression
same,GFP intensity (Mean Fluorescence Intensity) of Ech3937 (pmrp),"[6]; reference gene, 12 h (Table 4)",105 ± 0.3
same,rsmB mRNA relative expression ratio,[7],1.58
same,GFP intensity of Ech3937 (phrpS) compared with MM alone,[8]; 12 h,slightly lower GFP intensity
same,GFP intensity (Mean Fluorescence Intensity) of Ech3937 (phrpS),[8]; 12 h (Table 4),54 ± 2
same,GFP intensity (Mean Fluorescence Intensity) of WPP96 (phrpS),[8]; [9],360 ± 16
